For 22 compounds, IC50 results are on record in US7923446B2, “Biaryl sulfonamides and methods for using same” (Wyeth LLC, priority 2003, dated 2011).

Each structure is given as a SMILES string. Read-outs that look alike come from different tables or passages of the source.

The test concerns the target T1, purified full-length human recombinant aggrecanase-1 (rAgg1) (Homo sapiens, UniProt O75173).
T1 construct: purified full-length human recombinant aggrecanase-1
T1 sequence (O75173 213-837): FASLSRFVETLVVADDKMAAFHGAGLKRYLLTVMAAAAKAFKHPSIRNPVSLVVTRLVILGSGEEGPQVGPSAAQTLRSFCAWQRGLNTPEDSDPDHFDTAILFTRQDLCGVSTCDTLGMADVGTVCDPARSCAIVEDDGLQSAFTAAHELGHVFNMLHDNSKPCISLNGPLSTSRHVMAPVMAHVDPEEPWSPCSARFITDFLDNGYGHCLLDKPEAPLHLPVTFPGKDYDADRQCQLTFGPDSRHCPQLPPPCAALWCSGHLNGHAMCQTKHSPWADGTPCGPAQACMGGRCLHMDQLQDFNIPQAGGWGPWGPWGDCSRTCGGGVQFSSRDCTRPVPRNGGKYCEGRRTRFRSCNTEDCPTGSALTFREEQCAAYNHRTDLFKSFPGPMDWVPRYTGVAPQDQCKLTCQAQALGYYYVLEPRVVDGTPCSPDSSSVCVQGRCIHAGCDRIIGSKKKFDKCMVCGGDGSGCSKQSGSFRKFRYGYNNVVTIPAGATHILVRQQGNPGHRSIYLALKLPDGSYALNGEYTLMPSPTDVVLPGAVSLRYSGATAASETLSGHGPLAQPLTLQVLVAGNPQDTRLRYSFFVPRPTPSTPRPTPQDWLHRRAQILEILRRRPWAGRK
The test is described as follows: Aggrecanase-1 FRET Assay. Type of test: biochemical.

The mark [1] stands for this setting: rAgg1 5 μg/ml, substrate Abz-[…]-Dap(Dnp) 25 μM, 30° C., pH 7.5, read-out: IC50.

Description: The percentage activity remaining in the presence of inhibitor is plotted as a function of inhibitor concentration and the IC50 value is determined by fitting the data to the following equation: % activity=100IC50/(I0+IC50).
The following protocol was used: • Fluorimeter was started and temperature set to 30° C., about 30 min before setting up the assay. The following reagents are used: • Buffer: 50 mM HEPES, pH 7.5, 100 mM NaCl, 5 mM CaCl2, 0.1% CHAPS, 5% glycerol. • rAgg1: 5 μg/ml (final concentration in the assay): • Substrate: Abz-[sequence]-Dap(Dnp) (Abz:o-aminobenzoyl; Dnp: 2,4 dinitrophenyl) (Anaspec Inc), stored at 4° C.). Make a stock at 2 mg/ml in 100% DMSO. […] Store unused 100% DMSO stock at −80° C. […] Make up inhibitors at 10× starting concentration in 100% DMSO. Perform serial dilutions (in duplicate) across the nunc plate in 100% DMSO; • Dilution plates: Nunc, polypropylene low binding (Nalgene) • Assay plate: Fluoronunc (Nalgene) • Fluorimeter: GeminiXS (Molecular Devices).
The assay is performed as follows (The plates are set up so that the final column (12) is used for controls. Total reaction volume is 100 μl. Each compound is assayed in duplicate, so 4 compounds are screened per plate):
1) Add buffer to the entire 96-well plate (30 μl/well).
Add 20 μl/well to all wells. Mix 6 times.
Mix 6 times. To wells 12A-F, add 10× controls (see reference compounds below).
The reaction is monitored for 30-40 min at 30° C. λex: 340 nm and λem: 420 nm). The fluorescence is linear during this time and the slope of the line (Vmax/sec) represents the initial reaction rate, υ. The maximal rate of cleavage of substrate is determined in the absence of inhibitor.
The percent inhibition of activity in the presence of inhibitor is calculated as follows:
The IC50 was obtained by fitting the initial rate, υ, or % inhibition at each concentration of inhibitor to the following equation in Excel. y=(a−d)/(1+C/IC50)^n)+d
This model describes a sigmoidal curve with an adjustable baseline, a. y is the % inhbition or initial rate of reaction, C is the concentration of inhibitor under test. a is the limiting response as C approaches zero. As C increases without bound y tends toward its lower limit, d. y is halfway between the lower and upper asymptotes when C=IC50. n is the Hill coefficient. The sign of n is positive when the response increases with increasing dose and is negative when the response decreases with increasing dose (inhibition).

Broadly, the IC50 is the concentration that inhibits the measured activity by half. Consider `Cc1cc2ccccc2nc1OCc1ccc(-c2ccc(S(=O)(=O)N[C@@H](C(=O)O)C(C)C)cc2)cc1` [Example 1A, 3-Methyl-2-[4′-(3-methyl-quinolin-2-yloxymethyl)-biphenyl-4-sulfonylamino]-butyric acid], for which the IC50 under setting [1] was 200 nM. For `CC(C)[C@@H](NS(=O)(=O)c1ccc(-c2ccc(COc3ccc(C(F)(F)F)cn3)cc2)cc1)C(=O)O` [Example 1B, 3-Methyl-2-[4-(5-trifluoromethyl-pyridin-2-yloxymethyl)-biphenyl-4-sulfonylamino]-butyric acid], the IC50 under setting [1] turned out to be 800 nM. In the case of `Cc1cc(OCc2ccc(-c3ccc(S(=O)(=O)N[C@@H](C(=O)O)C(C)C)cc3)cc2)c2ccccc2n1` [Example 1D, D-3-Methyl-2-[4′-(2-methyl-quinolin-4-yloxymethyl)-biphenyl-4-sulfonylamino]-butyric acid], under setting [1], the IC50 is 400 nM. As for `CC(C)[C@@H](NS(=O)(=O)c1ccc(-c2ccc(COc3ccc4ccccc4n3)cc2)cc1)C(=O)O` [Example 1E], under setting [1], the half-maximal inhibitory concentration (IC50) was determined as 600 nM. With `CC(C)[C@@H](NS(=O)(=O)c1ccc(-c2ccc(COc3nc4ccccc4s3)cc2)cc1)C(=O)O` [Example 1F, 2-[4′-(Benzothiazol-2-yloxymethyl)-biphenyl-4-sulfonylamino]-3-methyl-butyric acid], under setting [1], the IC50 came to 1500 nM. As to `CC(C)[C@@H](NS(=O)(=O)c1ccc(-c2ccc(COc3cccc(C(=O)c4ccccc4)c3)cc2)cc1)C(=O)O` [Example 1H], the IC50 under setting [1] was found to be 230 nM.

For the compound `Cc1c(COc2ccc(-c3ccc(S(=O)(=O)N[C@@H](C(=O)O)C(C)C)cc3)cc2)oc2ccccc12` [Example 2A, D-3-Methyl-2-[4′-(3-methyl-benzofuran-2-ylmethoxy)-biphenyl-4-sulfonylamino]-butyric acid], the IC50 under setting [1] worked out at 1000 nM.

In the case of `CC(C)[C@@H](NS(=O)(=O)c1ccc(-c2ccc(OCc3cc4ccccc4o3)cc2)cc1)C(=O)O` [Example 2B, D-2-[4′-(Benzofuran-2-ylmethoxy)-biphenyl-4-sulfonylamino]-3-methyl-butyric acid], the IC50 under setting [1] was found to be 1500 nM. For the compound `CC(C)[C@@H](NS(=O)(=O)c1ccc(-c2ccc(OCc3ccc4ccccc4c3)cc2)cc1)C(=O)O` [Example 2C, D-3-Methyl-2-[4′-(naphthalen-2-ylmethoxy)-biphenyl-4-sulfonylamino]-butyric acid], under setting [1], the IC50 was found to be 800 nM. On the same count and under the same terms, under `CC(C)[C@@H](NS(=O)(=O)c1ccc(-c2ccc(OCc3ccccc3)cc2)cc1)C(=O)O` [Example 2D, D-2-(4′-Benzyloxy-biphenyl-4-sulfonylamino)-3-methyl-butyric acid] stands 5500 nM; under `Cc1cc(COc2ccc(-c3ccc(S(=O)(=O)N[C@@H](C(=O)O)C(C)C)cc3)cc2)c2ccccc2n1` [Example 2K, D-3-Methyl-2-[4′-(2-methyl-quinolin-4-ylmethoxy)-biphenyl-4-sulfonylamino]-butyric acid], 500 nM. As for `CC(=O)NCc1ccc(-c2ccc(S(=O)(=O)N[C@@H](C(=O)O)C(C)C)cc2)cc1` [Example 5A, D-2-[4′-(Acetylamino-methyl)-biphenyl-4-sulfonylamino]-3-methyl-butyric acid], the IC50 under setting [1] is 400 nM. Consider `CC(C)[C@@H](NS(=O)(=O)c1ccc(-c2ccc(OC(=O)Nc3ccc(F)cc3)cc2)cc1)C(=O)O` [Example 6A, 2-[4′-(4-Fluoro-phenylcarbamoyloxy)-biphenyl-4-sulfonylamino]-3-methyl-butyric acid], for which the IC50 amounted to 3600 nM.

For `CC(C)[C@@H](NS(=O)(=O)c1ccc(-c2ccc(OC(=O)Nc3ccc(Oc4ccccc4)cc3)cc2)cc1)C(=O)O` [Example 6B, D-3-Methyl-2-[4′-(4-phenoxy-phenylcarbamoyloxy)-biphenyl-4-sulfonylamino]-butyric acid], the IC50 was 600 nM. Take `CC(C)[C@@H](NS(=O)(=O)c1ccc(-c2ccc(OC(=O)Nc3ccc4ccccc4c3)cc2)cc1)C(=O)O` [Example 6C, D-3-Methyl-2-[4′-(naphthalen-2-ylcarbamoyloxy)-biphenyl-4-sulfonylamino]-butyric acid]: the IC50 was 1100 nM. Regarding `CC(C)[C@@H](NS(=O)(=O)c1ccc(-c2ccc(OC(=O)Nc3cc4ccccc4o3)cc2)cc1)C(=O)O` [Example 6S, N-[(4′-{[(1-benzofuran-2-ylamino)carbonyl]oxy}-1,1′-biphenyl-4-yl)sulfonyl]-D-valine], the IC50 was 4500 nM. For the compound `Cc1c(C(=O)Oc2ccc(-c3ccc(S(=O)(=O)N[C@@H](C(=O)O)C(C)C)cc3)cc2)oc2ccccc12` [Example 7A, D-3-Methyl-benzofuran-2-carboxylic acid 4′-(1-carboxy-2-methyl-propylsulfamoyl)-biphenyl-4-yl ester], under setting [1], the IC50 was determined as 90 nM. Same read-out and setting: under `CC(C)[C@@H](NS(=O)(=O)c1ccc(-c2ccc(OC(=O)c3cc4ccccc4o3)cc2)cc1)C(=O)O` [Example 7B, Benzofuran-2-carboxylic acid 4′-(1-carboxy-2-methyl-propylsulfamoyl)-biphenyl-4-yl ester] stands 345 nM; under `COc1cc(-c2ccc(S(=O)(=O)N[C@@H](C(=O)O)C(C)C)cc2)ccc1OCc1ccc2ccccc2c1` [Example 11A, 3-Methyl-2-[4′-(naphthalen-2-ylmethoxy)-3′-methoxy-biphenyl-4-sulfonylamino]-butyric acid], 8900 nM. The same measure, in the same setting: next, `COc1cc(COc2ccc(-c3ccc(S(=O)(=O)N[C@@H](C(=O)O)C(C)C)cc3)cc2OC)cc(OC)c1` [Example 11B, 2-[4′-(3,5-Dimethoxy-benzyloxy)-3′-methoxy-biphenyl-4-sulfonylamino]-3-methyl-butyric acid]: 16700 nM; `CC(C)[C@@H](NS(=O)(=O)c1ccc(-c2ccc(O)cc2)cc1OC(F)(F)F)C(=O)O` [Example 12A, 2-(4′-Hydroxy-3-trifluoromethoxy-biphenyl-4-sulfonylamino)-3-methyl-butyric acid]: 200000 nM; `CC(C)[C@@H](NS(=O)(=O)c1ccc(-c2ccc(O)cc2)cc1C(F)(F)F)C(=O)O` [Example 12B, 2-(4′-Hydroxy-3-trifluoromethyl-biphenyl-4-sulfonylamino)-3-methyl-butyric acid]: 67000 nM.
